In patent US10300058B2, “Tyrosine kinase inhibitor and uses thereof” (Xuanzhu Pharma Co., Ltd., priority 2014, dated 2019):
Read-outs that look alike come from different tables or passages of the source.

Assays:
EGFR T790M-L858R = EGFR T790M-L858R (Homo sapiens (Human), UniProt P00533, L858R/T790M); test: Mobility Shift Assay, in vitro enzyme-inhibiting activity, EGFR T790M-L858R; assay type: biochemical; details: for IC50: Km ATP; for Selectivity WT/T790M-L858R: ratio of IC50
Experimental: (§1) 1. Preparation of Reagents
(§2) 2. Preparation of a Compound Solution
(§3) (1) To the second well of a 96-well plate, 5 μL 10 mM compound (dissolved in DMSO) was added, and 95 μL 100% DMSO was added to prepare 100 μL 0.5 mM compound.
(§4) (2) To other wells, 60 μL 100% DMSO was added. 20 μL compound from the second well was added to the third well, and 4-fold dilution was further performed to get 10 diluted concentrations.
(§5) (3) To the first well and the twelfth well of the 96-well plate, 100 μL 100% DMSO was separately added, and the two wells were used as control wells.
(§6) (4) 10 μL from each well of the 96-well plate was added to another 96-well plate, and 90 μL 1-fold kinase buffer was added.
(§7) (5) 5 μL from the 96-well plate was added to another 384-well plate, for example, transferred from A1 well of the 96-well plate to A1 and A2 wells of the 384-well plate, and transferred from A2 well of the 96-well plate to A3 and A4 wells of the 384-well plate, and so on.
(§8) To 384-well plate, 10 μL 2.5-fold enzyme solution was added, and incubated at room temperature for 10 min.
(§9) (5) Kinase reaction and stop
(§10) After incubation at 28° C. for a period of time (depending on kinase), 25 μL stop solution was added.
(§11) 4. Data on percent conversion was read by Caliper.
(§12) (1) Data on enzyme activity was obtained by Caliper program;
(§13) (2) Inhibition rate of enzyme activity was calculated from the data on enzyme activity by the following formula: Inhibition rate(%)=(maximal value−the measured value of a test compound)/(maximal value-minimal value)×100,
(§14) wherein, the maximal value represents the measured value of DMSO control; and the minimal value represents the measured value of blank control.
(§15) (3) Calculation of IC50 value by XLFit excel.

EGFR (d746-750) = EGFR (d746-750) (Homo sapiens (Human), UniProt P00533, DEL746-750); test: Mobility Shift Assay, in vitro enzyme-inhibiting activity, EGFR (d746-750); assay type: biochemical; details: for IC50: Km ATP; for Selectivity WT/d746-750: ratio of IC50
EGFR (d746-750), sequence (P00533 other isoform, or with tags, fused parts or gaps del 1-668/del 746-750 limits assumed): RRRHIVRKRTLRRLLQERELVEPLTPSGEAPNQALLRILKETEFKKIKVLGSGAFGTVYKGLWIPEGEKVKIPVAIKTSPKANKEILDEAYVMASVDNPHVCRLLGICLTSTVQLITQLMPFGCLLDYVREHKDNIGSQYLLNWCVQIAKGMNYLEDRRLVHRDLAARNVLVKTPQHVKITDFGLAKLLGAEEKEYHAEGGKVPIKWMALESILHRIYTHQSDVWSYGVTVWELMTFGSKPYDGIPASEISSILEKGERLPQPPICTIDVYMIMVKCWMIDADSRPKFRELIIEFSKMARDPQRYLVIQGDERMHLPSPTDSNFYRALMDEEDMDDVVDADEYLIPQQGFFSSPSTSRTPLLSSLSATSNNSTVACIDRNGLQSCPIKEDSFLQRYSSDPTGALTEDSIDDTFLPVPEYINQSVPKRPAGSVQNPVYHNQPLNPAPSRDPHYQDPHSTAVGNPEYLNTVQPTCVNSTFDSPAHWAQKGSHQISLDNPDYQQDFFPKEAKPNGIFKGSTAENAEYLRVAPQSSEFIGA
Experimental: as §1, §2, §3, §4, §5, §6, §7, §8, §9, §10, §11, §12, §13, §14, §15

[1] = test system: H1975 cell (EGFR-T790M/L858R double mutation); test: In vitro cytologic activity, Celltiter-Glo, H1975 cells; assay type: cell-based, human; details: for IC50: Homo sapiens, NCI-H1975, 72 h, 72 h, Celltiter-Glo; for Selectivity (A431/H1975): ratio of IC50
Experimental: (§16) 1.1 Preparation of Cell Suspension
(§17) Culture medium was removed from culture bottle;
(§18) PBS was added to wash the cells; • pancreatin was added for digestion, and the cells were collected by centrifugation; • the cells were resuspended in a culture medium containing 10% fetal bovine serum, counted and adjusted to a concentration of 2×10^4/mL or 3×10^4/mL (cell viability must be greater than 90%); • the cell suspension was added to a 96-well plate, at 100 μL for each well, i.e., 2000/well for H1975 cell; 3000/well for A431 cell; and • the cells were cultured at 37° C. in 5% CO2 incubator overnight.
(§19) Dilution of a compound in DMSO (or water for injection) • (1) The compound was 5-fold diluted with DMSO from 10 mM to 2 mM, and then 4-fold diluted from 2 mM, to get 10 concentrations; • High control (HC, control without compound inhibition): 0.5% DMSO; • Low control (LC, control with compound inhibition): 1000 nM.
(§20) i. To each well, 99 μL growth medium containing 10% FBS was added, and then 1 μL diluted compound was added, the total volume of the well was […], and the final concentration of the compound was measured.
(§21) The test plate was left at room temperature, and equilibrated for 30 min. 80 μL culture medium was discarded. 60 μL CTG reagent (Celltiter-Glo kit) was added, and shaked for 2 min in a fast shaker, and was placed at room temperature for 10 min. The values were read by Envision instrument.

[2] = test system: A431 cell (wild-type EGFR gene); test: In vitro cytologic activity, Celltiter-Glo, A431 cells; assay type: cell-based; details: Homo sapiens, A-431, 72 h
Experimental: as §16, §17, §18, §19, §20, §21

Pharmacokinetics in rat = assay type: in vivo; details: male, plasma, SD rat; for bioavailability: read-out: F (absolute bioavailability)
Experimental: Test animal: male SD rat, 3 rats, weight: 200-250 g/rat
Blank solvent for intragastric administration (po) of Compound 2, 27: 0.1% Tween 80+2% HPC (hydroxypropyl cellulose),
Preparation: HPC (hydroxypropyl cellulose) (20 g) was weighed, and slowly added to purified water (1000 mL) under stirring, and Tween 80 (1 mL) was added. The mixture was stirred until it became clear, to get a blank solvent of 0.1% Tween 80+2% HPC. Compound 2 (3.21 mg) and Compound 27 (3.03 mg) were weighed, respectively, solvent was added, and the resultant mixture was placed in a tissue grinder, and ground at a speed of 1000 r/min. After homogeneous dispersion, a solution for intragastric administration at a theoretical concentration of 0.5 mg/mL was obtained. […] After homogeneous dispersion, a solution for intragastric administration at a theoretical concentration of 1.0 mg/mL was obtained.
A blank solvent for intravenous injection (iv) for Compound 2, 27, 31: 5% DMSO+10% PEG400+85% (28% HP-β-CD)
Compound 2 (2.98 mg), Compound 27 (2.98 mg), and Compound 31 (3.27 mg) were weighed, respectively, and blank solvent for intravenous injection was added. The resultant mixture was mixed homogeneously under vortexing, placed in a 50° C. constant temperature water bath for 20 min, and filtrated through a 0.22 μm filter membrane to get a clear and transparent solution for intravenous injection at a theoretical concentration of 0.5 mg/mL.
Formulation of Compound 31 for intravenous injection (iv): 20% DMF+20% PEG400+60% sterile water for injection
Compound 31 (3.10 mg) was weighed, and dissolved in 1.262 mL DMF (N,N-dimethylformamide) ultrasonically. 1.262 mL PEG400 was added, and the resultant mixture was mixed homogeneously under vortexing. 3.786 mL sterile water for injection was added. The mixture was vertexed homogeneously to get a clear and transparent solution for intravenous injection at a theoretical concentration of 0.5 mg/ml.
po: 0.167 h, 0.5 h, 1 h, 2 h, 4 h, 6 h, 8 h, 24 h after administration.
About 100 μL whole blood was collected from caudal vein at each time point, added to an anticoagulation tube containing K2EDTA, and centrifuged at 8000 r/min for 6 min in a low-temperature centrifuge to separate the plasma; the plasma was stored in a refrigerator at −80° C.
The plasma samples of Compound 2, 27, and 31 were analyzed by means of protein precipitation: to 30 μL plasma, 200 μL internal standard (acetonitrile solution containing 50 ng/mL CNX-2006, the structure of which is
[drawing 56] prepared by reference to the method in Patent WO2012064706A1) was added; the resultant mixture was vortexted for 10 min at 1000 r/min, and centrifuged for 20 min at 4000 r/min; to 100 μL supernatant, 100 μL water was added; the resultant mixture was mixed homogeneously under vortexing and analyzed by LC-MS/MS.

[3] = Table 8, read-out: IC50 EGFRT790M-L858R

EGFR T790M-L858R, sequence (P00533 25-1210 T790M/L858R): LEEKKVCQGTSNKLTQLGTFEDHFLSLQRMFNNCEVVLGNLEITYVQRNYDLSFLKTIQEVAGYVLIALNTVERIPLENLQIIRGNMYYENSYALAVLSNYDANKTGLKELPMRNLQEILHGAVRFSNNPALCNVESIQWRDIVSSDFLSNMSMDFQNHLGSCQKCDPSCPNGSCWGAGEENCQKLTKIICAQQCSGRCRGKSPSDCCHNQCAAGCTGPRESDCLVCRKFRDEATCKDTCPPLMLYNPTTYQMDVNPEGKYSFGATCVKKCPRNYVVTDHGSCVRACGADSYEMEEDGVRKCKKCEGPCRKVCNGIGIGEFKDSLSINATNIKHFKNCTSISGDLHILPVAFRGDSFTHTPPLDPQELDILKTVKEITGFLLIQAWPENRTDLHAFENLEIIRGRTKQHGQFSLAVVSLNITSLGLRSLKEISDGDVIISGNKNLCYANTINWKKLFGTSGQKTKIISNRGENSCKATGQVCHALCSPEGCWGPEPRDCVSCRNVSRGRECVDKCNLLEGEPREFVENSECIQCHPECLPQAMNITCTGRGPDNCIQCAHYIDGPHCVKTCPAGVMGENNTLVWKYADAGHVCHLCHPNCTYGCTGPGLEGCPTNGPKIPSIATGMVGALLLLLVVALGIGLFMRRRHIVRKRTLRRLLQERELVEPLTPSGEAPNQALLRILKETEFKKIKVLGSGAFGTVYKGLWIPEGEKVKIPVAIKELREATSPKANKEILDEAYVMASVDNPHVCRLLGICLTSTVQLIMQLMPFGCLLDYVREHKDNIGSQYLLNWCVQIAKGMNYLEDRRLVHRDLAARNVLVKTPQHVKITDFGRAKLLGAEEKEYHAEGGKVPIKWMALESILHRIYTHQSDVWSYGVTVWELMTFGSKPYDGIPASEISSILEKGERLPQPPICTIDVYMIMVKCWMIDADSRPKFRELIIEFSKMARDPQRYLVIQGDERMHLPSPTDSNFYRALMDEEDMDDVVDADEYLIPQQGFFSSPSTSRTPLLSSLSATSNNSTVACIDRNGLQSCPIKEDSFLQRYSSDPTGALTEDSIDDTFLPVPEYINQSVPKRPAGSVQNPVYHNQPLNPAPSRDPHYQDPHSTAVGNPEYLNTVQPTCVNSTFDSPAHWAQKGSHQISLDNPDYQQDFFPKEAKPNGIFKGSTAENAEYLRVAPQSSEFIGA

Row | Structure (SMILES) | AUC(0-t) (Pharmacokinetics in rat; iv, 1 mg/kg) | clearance (Pharmacokinetics in rat; iv, 1 mg/kg) | AUC(0-t) (Pharmacokinetics in rat; po, 2 mg/kg) | bioavailability (Pharmacokinetics in rat; po, 2 mg/kg) | IC50 (EGFR T790M-L858R; [3]) | IC50 (EGFR (d746-750); Table 8) | IC50 ([1]; Table 10, unit inferred) | Selectivity (A431/H1975) ([1]; Table 10) | IC50 ([2]; Table 10, unit inferred) | further results
1 | C=CC(=O)Nc1cccc(Nc2nc(Nc3ccc(C4CCN(C(C)=O)CC4)cc3OC)ncc2C(F)(F)F)c1 [Compound 2, N-(3-((2-((4-(1-acetylpiperidin-4-yl)-2-methoxyphenyl)amino)-5-(trifluoromethyl)pyrimidin-4-yl)amino)phenyl)acrylamide] | 723 ng·h/mL | 26 mL/min/kg | 267 ng·h/mL | 19% |  |  |  |  |  | IC50 (EGFR T790M-L858R; Table 5): 2.5 nM; Selectivity WT/T790M-L858R (EGFR T790M-L858R; Table 5): 140.2; IC50 (EGFR (d746-750); Table 5): 24.2 nM; Selectivity WT/d746-750 (EGFR (d746-750); Table 5): 14.2; IC50 ([1]; Table 9): 104 nM; Selectivity (A431/H1975) ([1]; Table 9): 17.7; IC50 ([2]; Table 9): 1850 nM
2 | C=CC(=O)Nc1cccc(Nc2nc(Nc3ccc(C4CCN(S(C)(=O)=O)CC4)cc3OC)ncc2C(F)(F)F)c1 [Compound 27, N-(3-((2-((2-methoxy-4-(1-(methylsulfonyl)piperidin-4-yl)phenyl)amino)-5-(trifluoromethyl)pyrimidin-4-yl)amino)phenyl)acrylamide] | 774 ng·h/mL | 22.7 mL/min/kg | 754 ng·h/mL | 49% | 9.8 nM | 36 nM | 278 nM | 10.0 | 2790 nM | 
3 | C=CC(=O)Nc1cccc(Nc2nc(Nc3ccc(N4CCC(N5CCOCC5)CC4)cc3OC)ncc2C(F)(F)F)c1 [Compound 28, N-(3-((2-((2-methoxy-4-(4-morpholinopiperidin-1-yl)phenyl)amino)-5-(trifluoromethyl)pyrimidin-4-yl)amino)phenyl)acrylamide] |  |  |  |  | 1.5 nM | 5.5 nM | 75.2 nM | 9.4 | 703 nM | 
4 | C=CC(=O)Nc1cccc(Nc2nc(Nc3ccc(N4CC5(CN(C(C)=O)C5)C4)cc3OC)ncc2C(F)(F)F)c1 [Compound 31, N-(3-((2-((4-(6-acetyl-2,6-diazaspiro[3.3]heptan-2-yl)-2-methoxyphenyl)amino)-5-(trifluoromethyl)pyrimidin-4-yl)amino)phenyl)acrylamide] |  |  |  |  |  |  | 278 nM | 9.8 | 2720 nM | IC50 (EGFR T790M-L858R; Table 7): 4.73 nM; Selectivity WT/T790M-L858R (EGFR T790M-L858R; Table 7): 44.4; IC50 (EGFR (d746-750); Table 7): 28.6 nM; Selectivity WT/d746-750 (EGFR (d746-750); Table 7): 7.4; AUC(0-t) (Pharmacokinetics in rat; iv, 0.74 mg/kg): 1020 ng·h/mL; clearance (Pharmacokinetics in rat; iv, 0.74 mg/kg): 12.2 mL/min/kg
